# Assay results from patent publication US20120071475A1, “UREA DERIVATIVES HAVING PI3K-INHIBITING ACTIVITY” (SHIONOGI & CO., LTD., priority 2009, published 2012).
# Like-named read-outs stand apart in the source and are kept apart here.
# Columns and labels:
# [1] = Solubility test (artificial intestinal juice pH 6.8, 1% DMSO); type: physicochemical; conditions: artificial intestinal juice pH 6.8 with 1% DMSO, fassgf or other biorelevant, kinetic from dmso stock, 25° C.
# Protocol: The solubility of a compound was determined under a condition in which 1% DMSO was added. 10 mmol/L compound solution was prepared using DMSO, and then 6 μL of the compound solution was added to 594 μL of artificial intestinal juice in pH 6.8 (to 250 mL of 0.2 mol/L potassium dihydrogen phosphate reagent solution was added 118 mL of 0.2 mol/L NaOH reagent solution and water to provide a final volume of 1000 mL). After standing at 25° C. for 16 hours, the mixed solution was filtered with suction. The filtrate was diluted twice with methanol/water (1/1), and then a concentration in the filtration was measured with HPLC or LC/MS/MS by the absolute calibration method.
# [2] = tested on: CYP1A2, CYP2C9, CYP2C19, CYP2D6 and CYP3A4 (one value for the five species); assay: CYP inhibition test, five CYP species together (5CYPs_IC50; pooled human liver microsome); type: in vitro ADME; conditions: human, microsomes
# Text: O-de-ethylation of 7-ethoxyresorufin (CYP1A2), methyl-hydroxylation of tolbutamide (CYP2C9), 4′-hydroxylation of mephenyloin (CYP2C19), O-demethylation of dextromethorphan (CYP2D6), and hydroxylation of terfenadine (CYP3A4), which are typical substrate for metabolic reactions of human main CYP5 molecular species (CYP1A2, 2C9, 2C19, 2D6, and 3A4), were adopted as indexes.
# The reaction conditions are as follows: substrate: 0.5 μmol/L of ethoxyresorufin (CYP1A2), 100 μmol/L of tolbutamide (CYP2C9), 50 μmol/L of S-mephenyloin (CYP2C19), 5 μmol/L of dextromethorphan (CYP2D6), and 1 μmol/L of terfenadine (CYP3A4); reaction time; 15 minutes; reaction temperature: 37° C.; enzyme: pooled human liver microsome 0.2 mg protein/mL; test drug concentration: 1, 5, 10, and 20 μmol/L (4 points).
# In a 96-well plate, as a reaction solution, five kinds of substrates, a human liver microsome, and a test drug were added to 50 mmol/L Hepes buffer solution in the aforementioned ratio. A coenzyme NADPH was added to start a metabolic reaction, which is an index. After reacting at 37° C. for 15 minutes, a solution of methanol/acetonitrile (1/1 (v/v)) was added to quench the reaction. After centrifugation at 3000 rpm for 15 minutes, resorufin (CYP1A2 metabolite) in the supernatant was quantitated with a fluorescence multilabel counter, and hydroxylated tolbutamide (CYP2C9 metabolite), 4′-hydroxylated mephenyloin (CYP2C19 metabolite), […], terfenadine in alcohol form (CYP3A4 metabolite) were quantitated with LC/MS/MS.
# The case wherein only DMSO (a solvent which dissolved a drug) was added to a reaction system was defined as a control (100%). When a test drug solution was added, the remaining activity (%) at each concentration was calculated, and then IC50 was calculated with a concentration and an inhibition ratio by an inverse estimation using a logistic model.
# PI3Kγ [3] = target: T1, PI3Kγ (Homo sapiens, UniProt P48736); assay: PI3Kγ inhibitory activity (PI3-kinase HTRF assay, inhibition ratio); type: biochemical; conditions: 0.5 h, compound at 10 μmol/L; read-out: PI3Kg Inhibition Ratio % (10 μM)
# In short: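 Compound at 10 μmol/L preincubated 10 min with PI3Kγ and PIP2 substrate, then reacted with ATP for 30 minutes at room temperature; the compound, substrate and ATP figures as printed (40 μmol/L each) are solution concentrations. HTRF 665/620 nm ratio read after 18 hours. Inhibition ratio calculated against no-compound (100%) and no-enzyme (0%) controls.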
# [4] = Metabolic stability test (pooled human liver microsome); type: in vitro ADME; conditions: percentage of test compound remained after 30 minutes, pooled human liver microsome 0.5 mg protein/mL, 1 mmol/L NADPH, 37° C., compound 0.5 μM
# In short: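 Pooled human liver microsomes (0.5 mg protein/mL) incubated with compound and 1 mmol/L NADPH at 37° C. in pH 7.4 Tris buffer for 0 or 30 min. Parent quantified by LC/MS/MS after methanol/acetonitrile quench; value is % remaining at 30 min versus 0 min.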
# hERG channel (IKr) = target: T2, hERG channel (IKr) (Homo sapiens, UniProt Q12809); assay: hERG test (whole-cell patch-clamp, IKr in HEK293 cells); type: cell-based; conditions: human, HEK293 cells expressing hERG channel, pH 7.4, inhibition of maximum tail current (IKr); for inhibition at 10 min, 1 µM: compound 1 μM
# T2 construct: expressed in transfected cells; host or cells: HEK293
# In short: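 hERG-expressing HEK293 cells, automated whole-cell patch clamp: hold −80 mV, +50 mV for 2 s, then −50 mV for 2 s to record IKr tail current. Compound in extracellular solution (pH 7.4) for 10 min at room temperature; inhibition of maximum tail current calculated versus pre-application and compared with 0.1% DMSO vehicle.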
# AKT phosphorylation = AKT phosphorylation inhibitory activity in MCP-1 stimulated THP-1 cells (sandwich ELISA); type: cell-based, Human; conditions: Homo sapiens, compound at 1 μmol/L, MCP-1 stimulation, read-out: AKT phosphorylation inhibition ratio
# In short: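 THP-1 cells (6.7×10^6/mL in HBSS) were preincubated with compound at 1 μmol/L for 5 min at 37 °C, then stimulated for 60 s with HBSS containing 1.2 μg/mL MCP-1 and lysed. Phospho-Akt Ser473/AKT1 sandwich ELISA was read at A450. % inhibition: no compound = 100% activity, no MCP-1 = 0%.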
# CYP3A4 = target: T3, CYP3A4 (Homo sapiens, UniProt P08684); assay: CYP3A4 fluorescence MBI test; type: in vitro ADME; conditions: difference in IC50 with 0 or 30 minutes pre-reaction; CYP3A4 expressed in E. coli, substrate 7-BFC
# T3 construct: host or cells: E. coli
# In short: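 E. coli-expressed CYP3A4 debenzylating 5.6 μmol/L 7-BFC to fluorescent 7-HFC (Ex 420/Em 535 nm) in K-Pi pH 7.4 at 25° C, 15 min reaction. NADPH pre-incubation of 0 or 30 min, with 10-fold dilution before reaction. IC50 from 0.625–20 μmol/L (6 points); (+) for an IC50 shift ≥5 μmol/L, (−) for ≤3 μmol/L.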
# PI3Kγ [5] = target: T1, PI3Kγ; assay: PI3Kγ inhibitory activity (Ki value); type: biochemical
# In short: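 Ki derived from IC50 measured at final compound levels of 50–0.05 μmol/L (HTRF read-out; 40 μmol/L ATP, 10 mmol/L MgCl2, 5 mmol/L DTT), IC50 by logistic or two-point linear fit. ATP Km from Lineweaver-Burk over 0.625–80 μmol/L ATP; Ki = IC50/(1+[ATP]/Km).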
# PI3Kα = PI3Kα (Homo sapiens, UniProt P42336); assay: PI3Kα inhibitory activity (Ki value); type: biochemical; conditions: class symbols; read-out: PI3K α Ki
# Protocol: (§1) According to Example 2 above, after 80 μg/mL PI-3 kinase γ of the enzyme solution (80 μg/mL PI-3 kinase γ, 10 mmol/L MgCl2, 5 mmol/L DTT) was changed to 0.8 μg/mL PI-3 kinase α, an inhibition ratio was calculated by a method similar to the method for measuring PI3Kγ inhibitory activity, and then defined as the PI3Kα inhibitory activity.
# The α inhibitory activity (Ki value) of a compound was evaluated according to the following procedure.
# According to Example 4 above, a Km value for PI3Kα was determined to calculate a Ki value.
# PI3Kβ = PI3Kβ (Homo sapiens, UniProt P42338); assay: PI3Kβ inhibitory activity (Ki value); type: biochemical; conditions: class symbols; read-out: PI3K β Ki
# Protocol: as §1, with “60” for “0.8”, “β,” for “α, an inhibition ratio was calculated by”, “activity was used to calculate an inhibition ratio, which was” for “activity, and then”, “PI3Kβ” for “PI3Kα”
# According to Example 4 above, a Km value for PI3Kβ was determined to calculate a Ki value.
# PI3Kδ = PI3Kδ (Homo sapiens, UniProt O00329); assay: PI3Kδ inhibitory activity (Ki value); type: biochemical; conditions: class symbols; read-out: PI3K δ Ki
# Protocol: as §1, with “158” for “0.8”, “δ,” for “α, an inhibition ratio was calculated by”, “activity was used to calculate an inhibition ratio, which was” for “activity, and then”, “PI3Kδ” for “PI3Kα”
# According to Example 4 above, a Km value for PI3Kδ was determined to calculate a Ki value.
# T2 sequence (Q12809 whole entry): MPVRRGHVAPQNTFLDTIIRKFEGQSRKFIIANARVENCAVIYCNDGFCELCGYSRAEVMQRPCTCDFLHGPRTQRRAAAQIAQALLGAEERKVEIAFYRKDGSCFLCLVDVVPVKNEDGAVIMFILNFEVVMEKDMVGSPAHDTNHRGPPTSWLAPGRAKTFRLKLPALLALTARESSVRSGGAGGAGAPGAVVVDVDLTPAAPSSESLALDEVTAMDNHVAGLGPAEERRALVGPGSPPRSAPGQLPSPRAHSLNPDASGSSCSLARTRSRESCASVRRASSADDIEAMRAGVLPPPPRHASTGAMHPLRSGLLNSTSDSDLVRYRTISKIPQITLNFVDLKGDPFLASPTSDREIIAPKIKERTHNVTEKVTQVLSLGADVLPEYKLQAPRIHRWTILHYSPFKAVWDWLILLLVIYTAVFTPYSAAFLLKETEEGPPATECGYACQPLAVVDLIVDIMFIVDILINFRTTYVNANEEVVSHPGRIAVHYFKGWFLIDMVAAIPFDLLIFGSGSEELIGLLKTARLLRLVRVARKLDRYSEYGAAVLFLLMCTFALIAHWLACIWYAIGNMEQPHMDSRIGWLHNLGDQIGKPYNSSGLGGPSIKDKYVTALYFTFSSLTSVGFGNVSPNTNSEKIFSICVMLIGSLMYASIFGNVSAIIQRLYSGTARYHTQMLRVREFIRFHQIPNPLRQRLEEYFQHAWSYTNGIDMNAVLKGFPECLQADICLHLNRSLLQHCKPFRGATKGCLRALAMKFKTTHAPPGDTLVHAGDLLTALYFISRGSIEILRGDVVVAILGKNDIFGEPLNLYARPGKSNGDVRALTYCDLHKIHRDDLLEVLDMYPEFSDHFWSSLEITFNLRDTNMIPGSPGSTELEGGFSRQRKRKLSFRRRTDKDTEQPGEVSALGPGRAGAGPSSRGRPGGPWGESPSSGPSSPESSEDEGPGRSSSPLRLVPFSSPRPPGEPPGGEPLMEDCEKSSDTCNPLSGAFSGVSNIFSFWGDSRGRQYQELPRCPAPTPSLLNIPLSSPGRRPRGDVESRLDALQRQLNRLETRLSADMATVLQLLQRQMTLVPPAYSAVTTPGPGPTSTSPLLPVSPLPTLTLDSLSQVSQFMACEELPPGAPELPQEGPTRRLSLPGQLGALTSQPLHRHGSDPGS
# T1 sequence (P48736 whole entry, species assumed): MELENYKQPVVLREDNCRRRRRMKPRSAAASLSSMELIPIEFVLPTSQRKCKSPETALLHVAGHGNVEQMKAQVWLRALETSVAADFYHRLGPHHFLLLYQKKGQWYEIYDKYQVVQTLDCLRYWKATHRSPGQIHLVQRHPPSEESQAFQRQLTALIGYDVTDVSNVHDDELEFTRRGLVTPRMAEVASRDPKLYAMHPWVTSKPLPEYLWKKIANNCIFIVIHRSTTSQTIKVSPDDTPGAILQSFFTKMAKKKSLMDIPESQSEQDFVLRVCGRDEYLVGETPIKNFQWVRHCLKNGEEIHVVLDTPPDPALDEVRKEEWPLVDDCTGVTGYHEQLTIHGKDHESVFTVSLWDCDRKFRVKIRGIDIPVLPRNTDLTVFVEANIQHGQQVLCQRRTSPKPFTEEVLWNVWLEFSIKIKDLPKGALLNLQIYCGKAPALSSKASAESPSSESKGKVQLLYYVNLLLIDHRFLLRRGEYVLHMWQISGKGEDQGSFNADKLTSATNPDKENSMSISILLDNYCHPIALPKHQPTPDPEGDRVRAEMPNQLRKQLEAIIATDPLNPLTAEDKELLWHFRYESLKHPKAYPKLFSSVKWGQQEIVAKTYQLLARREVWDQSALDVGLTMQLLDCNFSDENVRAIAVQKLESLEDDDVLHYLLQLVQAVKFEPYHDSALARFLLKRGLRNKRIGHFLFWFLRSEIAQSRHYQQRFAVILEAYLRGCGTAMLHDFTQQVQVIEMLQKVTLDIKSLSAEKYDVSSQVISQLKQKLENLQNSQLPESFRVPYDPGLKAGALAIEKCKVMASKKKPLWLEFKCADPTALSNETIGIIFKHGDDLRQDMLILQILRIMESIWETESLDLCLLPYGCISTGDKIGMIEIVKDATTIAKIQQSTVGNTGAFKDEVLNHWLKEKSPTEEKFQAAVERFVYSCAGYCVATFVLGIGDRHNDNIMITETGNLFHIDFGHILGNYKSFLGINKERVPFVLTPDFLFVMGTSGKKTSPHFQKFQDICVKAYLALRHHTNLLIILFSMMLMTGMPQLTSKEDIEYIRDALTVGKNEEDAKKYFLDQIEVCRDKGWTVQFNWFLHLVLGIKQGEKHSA
# T3 sequence (P08684 whole entry): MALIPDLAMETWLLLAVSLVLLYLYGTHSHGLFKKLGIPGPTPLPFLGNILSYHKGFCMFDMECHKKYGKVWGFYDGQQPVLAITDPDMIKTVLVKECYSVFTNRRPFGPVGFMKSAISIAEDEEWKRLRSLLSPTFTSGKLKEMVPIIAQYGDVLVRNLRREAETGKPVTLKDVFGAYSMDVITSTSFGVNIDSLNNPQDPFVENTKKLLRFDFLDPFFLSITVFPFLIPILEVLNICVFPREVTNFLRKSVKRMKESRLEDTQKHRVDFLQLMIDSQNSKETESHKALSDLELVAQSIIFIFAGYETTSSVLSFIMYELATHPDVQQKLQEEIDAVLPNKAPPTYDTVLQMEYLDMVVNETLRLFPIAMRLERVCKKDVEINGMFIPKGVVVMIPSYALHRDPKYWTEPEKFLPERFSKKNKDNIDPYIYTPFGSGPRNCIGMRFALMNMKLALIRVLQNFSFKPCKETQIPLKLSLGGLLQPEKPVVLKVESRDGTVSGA
# Sequence of PI3Kα (P42336 whole entry, species assumed): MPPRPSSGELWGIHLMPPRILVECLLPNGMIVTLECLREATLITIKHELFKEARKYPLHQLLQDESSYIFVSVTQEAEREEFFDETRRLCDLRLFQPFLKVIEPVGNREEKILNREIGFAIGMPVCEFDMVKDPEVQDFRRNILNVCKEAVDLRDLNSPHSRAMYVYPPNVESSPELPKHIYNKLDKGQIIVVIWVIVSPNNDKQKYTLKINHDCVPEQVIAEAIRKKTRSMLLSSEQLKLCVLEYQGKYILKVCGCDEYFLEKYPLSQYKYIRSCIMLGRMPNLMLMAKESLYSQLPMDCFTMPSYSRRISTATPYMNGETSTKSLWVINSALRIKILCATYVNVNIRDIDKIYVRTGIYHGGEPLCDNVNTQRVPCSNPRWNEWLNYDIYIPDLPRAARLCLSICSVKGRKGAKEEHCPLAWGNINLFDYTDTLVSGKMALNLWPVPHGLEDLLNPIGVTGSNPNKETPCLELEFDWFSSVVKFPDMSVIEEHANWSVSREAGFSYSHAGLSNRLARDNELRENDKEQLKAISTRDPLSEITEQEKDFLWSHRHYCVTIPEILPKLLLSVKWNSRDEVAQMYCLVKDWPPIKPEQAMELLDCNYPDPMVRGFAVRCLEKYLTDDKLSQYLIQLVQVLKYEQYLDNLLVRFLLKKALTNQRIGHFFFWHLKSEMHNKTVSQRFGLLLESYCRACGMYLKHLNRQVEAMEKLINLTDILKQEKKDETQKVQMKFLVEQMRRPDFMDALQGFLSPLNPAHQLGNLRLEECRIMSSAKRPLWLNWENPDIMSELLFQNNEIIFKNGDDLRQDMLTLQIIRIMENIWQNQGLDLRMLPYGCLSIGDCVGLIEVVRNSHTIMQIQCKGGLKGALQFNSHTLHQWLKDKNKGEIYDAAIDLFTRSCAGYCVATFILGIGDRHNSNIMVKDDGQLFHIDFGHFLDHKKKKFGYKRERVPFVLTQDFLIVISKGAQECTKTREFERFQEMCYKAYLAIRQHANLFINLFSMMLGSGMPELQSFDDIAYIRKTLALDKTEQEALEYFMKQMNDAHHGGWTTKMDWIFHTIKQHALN
# Sequence of PI3Kα (P27986 whole entry partner, species assumed): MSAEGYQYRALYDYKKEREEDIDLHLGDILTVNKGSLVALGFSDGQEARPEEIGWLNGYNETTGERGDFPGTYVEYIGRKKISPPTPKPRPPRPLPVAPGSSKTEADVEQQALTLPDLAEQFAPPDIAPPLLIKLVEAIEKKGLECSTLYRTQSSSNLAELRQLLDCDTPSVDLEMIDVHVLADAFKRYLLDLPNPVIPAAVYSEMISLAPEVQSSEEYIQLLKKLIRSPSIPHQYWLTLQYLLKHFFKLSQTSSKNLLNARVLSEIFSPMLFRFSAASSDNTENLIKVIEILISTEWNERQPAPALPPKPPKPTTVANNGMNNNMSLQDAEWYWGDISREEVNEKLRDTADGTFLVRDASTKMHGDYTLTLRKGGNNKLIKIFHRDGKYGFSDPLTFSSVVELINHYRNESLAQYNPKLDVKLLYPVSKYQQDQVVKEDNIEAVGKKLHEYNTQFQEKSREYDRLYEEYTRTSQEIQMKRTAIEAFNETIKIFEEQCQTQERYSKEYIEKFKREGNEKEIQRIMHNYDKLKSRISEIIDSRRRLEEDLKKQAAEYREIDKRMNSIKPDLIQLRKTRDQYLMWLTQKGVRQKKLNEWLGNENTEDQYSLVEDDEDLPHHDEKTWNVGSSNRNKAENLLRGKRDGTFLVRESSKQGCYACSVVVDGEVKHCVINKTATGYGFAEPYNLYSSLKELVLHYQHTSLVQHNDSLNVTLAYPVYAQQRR
smiles,measurement,setting,value
COc1cc(N2CCc3nc(NC(=O)Nc4ccccc4CNC(C)C)sc3C2)nc(OC)n1 [Compound I-84],solubility at 16 h,[1],> 50 µM
same,IC50 at 15 min,[2],> 20 µM
COc1cc(N2CCc3nc(NC(=O)Nc4ccccc4C(=O)NN(C)C)sc3C2)nc(OC)n1 [Compound I-182],inhibition at 10 µM,PI3Kγ [3],≥ 95%
same,hLMS_ox(at 0.5 μM) %,[4],88.1%
same,solubility at 16 h,[1],19.6 µM
same,"inhibition at 10 min, 1 µM",hERG channel (IKr),4.9%
same,inhibition at 1 µM,AKT phosphorylation,≥ 95%
C[C@@H](CO)NC(=O)c1ccccc1NC(=O)Nc1nc2c(s1)CN(c1cncc(C#N)c1)CC2 [Compound I-189],inhibition at 10 µM,PI3Kγ [3],92%
same,solubility at 16 h,[1],10.3 µM
same,MBI,CYP3A4,"(−) (When 3 μmol/L or less, the compound is shown as (−))"
COc1cc(N2CCc3nc(NC(=O)Nc4ccccc4C(=O)NCC(C)(C)O)sc3C2)nc(OC)n1 [Compound I-158],inhibition at 10 µM,PI3Kγ [3],86%
same,hLMS_ox(at 0.5 μM) %,[4],99%
same,solubility at 16 h,[1],24.9 µM
same,"inhibition at 10 min, 1 µM",hERG channel (IKr),9.2%
same,inhibition at 1 µM,AKT phosphorylation,≥ 95%
CCOC(=O)[C@H]1CCC[C@H]1NC(=O)Nc1nc2c(s1)CN(c1cc(OC)nc(OC)n1)CC2 [Compound I-149],solubility at 16 h,[1],36.1 µM
same,IC50 at 15 min,[2],> 20 µM
COc1cc(N2CCc3nc(NC(=O)Nc4ccccc4C(=O)N4CCOCC4)sc3C2)nc(OC)n1 [Compound I-10],inhibition at 10 µM,PI3Kγ [3],68%
same,solubility at 16 h,[1],> 50 µM
same,IC50 at 15 min,[2],> 20 µM
same,MBI,CYP3A4,"(−) (When 3 μmol/L or less, the compound is shown as (−))"
COc1ccc(N2CCc3nc(NC(=O)Nc4ccccc4C(=O)NC(C)CO)sc3C2)cc1OC (stereo not drawn) [Compound I-107],hLMS_ox(at 0.5 μM) %,[4],98%
same,solubility at 16 h,[1],42.6 µM
same,IC50 at 15 min,[2],≥ 10 µM
same,"inhibition at 10 min, 1 µM",hERG channel (IKr),5.4%
COc1cc(N2CCc3nc(NC(=O)Nc4ccccc4C(=O)NC4CCNCC4)sc3C2)nc(OC)n1 [Compound I-202],inhibition at 10 µM,PI3Kγ [3],≥ 95%
same,hLMS_ox(at 0.5 μM) %,[4],104%
same,solubility at 16 h,[1],> 50 µM
same,IC50 at 15 min,[2],≥ 10 µM
CCNC(=O)c1ccncc1NC(=O)Nc1nc2c(s1)CN(c1cnc(OC)c(OC)c1)CC2 [Compound I-103],inhibition at 10 µM,PI3Kγ [3],≥ 95%
same,hLMS_ox(at 0.5 μM) %,[4],85.8%
same,solubility at 16 h,[1],30.1 µM
same,"inhibition at 10 min, 1 µM",hERG channel (IKr),3.6%
COc1cc(N2CCc3nc(NC(=O)Nc4ccccc4OCCC(C)(C)C(=O)O)sc3C2)nc(OC)n1 [Compound I-100],inhibition at 10 µM,PI3Kγ [3],≥ 95%
same,hLMS_ox(at 0.5 μM) %,[4],89.3%
same,solubility at 16 h,[1],34.4 µM
COc1cc(N2CCc3nc(NC(=O)NC4CCCCC4C(=O)NC(C)C)sc3C2)nc(OC)n1 (stereo not drawn) [Compound I-31],inhibition at 10 µM,PI3Kγ [3],90%
same,solubility at 16 h,[1],32.3 µM
same,IC50 at 15 min,[2],≥ 10 µM
CC(CO)NC(=O)c1ccccc1NC(=O)Nc1nc2c(s1)CN(c1ccc(F)cn1)CC2 (stereo not drawn) [Compound I-120],inhibition at 10 µM,PI3Kγ [3],≥ 95%
same,hLMS_ox(at 0.5 μM) %,[4],92.3%
same,solubility at 16 h,[1],17.5 µM
COc1cc(N2CCc3nc(NC(=O)Nc4ccccc4C(=O)NC(C)(C)C(=O)O)sc3C2)nc(OC)n1 [Compound I-19],inhibition at 10 µM,PI3Kγ [3],≥ 95%
same,hLMS_ox(at 0.5 μM) %,[4],87.2%
same,solubility at 16 h,[1],> 50 µM
same,IC50 at 15 min,[2],> 20 µM
same,"inhibition at 10 min, 10 µM",hERG channel (IKr); compound 10 μM,9.5%
C[C@@H](CO)NC(=O)c1ccccc1NC(=O)Nc1nc2c(s1)CN(c1cc[nH]c(=O)c1)CC2 [Compound I-183],inhibition at 10 µM,PI3Kγ [3],91%
same,hLMS_ox(at 0.5 μM) %,[4],109%
same,solubility at 16 h,[1],28.1 µM
same,Ki,"PI3Kγ [5]; class symbols, read-out: PI3K γ Ki",≤ 0.3 µM
same,Ki,PI3Kγ [5]; read-out: PI3Kγ Ki value,0.09 µM
same,Ki,PI3Kα,> 3 µM
same,Ki,PI3Kβ,> 3 µM
same,Ki,PI3Kδ,> 3 µM
COc1cc(N2CCc3nc(NC(=O)Nc4ccccc4C(=O)NC(C)CN(C)C)sc3C2)nc(OC)n1 (stereo not drawn) [Compound I-137],inhibition at 10 µM,PI3Kγ [3],≥ 95%
same,hLMS_ox(at 0.5 μM) %,[4],94.5%
same,solubility at 16 h,[1],> 50 µM
same,inhibition at 1 µM,AKT phosphorylation,85%
CC(C)NC(=O)c1ccccc1NC(=O)Nc1nc2c(s1)CN(c1cnc(N)c(C(F)(F)F)c1)CC2 [Compound I-212],inhibition at 10 µM,PI3Kγ [3],≥ 95%
same,solubility at 16 h,[1],14 µM
same,IC50 at 15 min,[2],≥ 10 µM
same,inhibition at 1 µM,AKT phosphorylation,≥ 95%
